Reference: the OPERA property sets (Mansouri et al. 2018)

Going from `CC1=NOC(=O)C1=NNc1ccccc1Cl` to `CCNC(=O)c1ccccc1`, the logP falls from 2.6 to 1.28.

Compared with `CCN(CC)CC(=O)NC1CCc2ccccc21` (stereo not drawn), `CCN(CC)CCOC(=O)C=Cc1ccc(OC)cc1` is higher in logP: 2.74 for the first, 3.55 for the second.

Going from `CN(C)c1ccc(C=C[N+](=O)[O-])cc1` to `COc1ccc(C(=O)N(C)C)cc1`, the logP falls from 2.67 to 0.96.

Going from `O=C(NC(CO)C(O)c1ccc([N+](=O)[O-])cc1)C(Cl)(Cl)Cl` (stereo not drawn) to `CC(C)C(=O)NC(CO)C(O)c1ccc([N+](=O)[O-])cc1` (stereo not drawn), the logP falls from 1.97 to 0.79.

`Clc1cc2oc3c(Cl)c(Cl)ccc3c2c(Cl)c1Cl` and `Clc1ccc(Cl)c(-c2cc(Cl)ccc2Cl)c1` are within 0.2 log units of each other in logP: 6.26 for the first, 6.09 for the second.

First: O=C(Cn1cnc([N+](=O)[O-])n1)N1CCOCC1
Second: O=C(O)c1ccc([N+](=O)[O-])cc1Cl
The logP of the first is lower: -0.96 for the first, 2.03 for the second.

Compared with `CC(=O)OCC(=O)[C@@]1(O)CC[C@H]2[C@@H]3CCC4=CC(=O)CC[C@]4(C)[C@H]3C(=O)C[C@@]21C`, `CCCCOC(=O)Oc1cccc(C2(C(=O)CC)CCN(C)CC2)c1` is higher in logP: 2.1 for the first, 2.42 for the second.

`CCCN(CCC)CCC` and `CCCCC(CC)CN` (stereo not drawn) are within 0.2 log units of each other in logP: 2.79 for the first, 2.82 for the second.

Going from `CCCN(C)/N=N/c1ccc(C(N)=O)cc1` to `O=C(O)c1ccc(Br)cc1`, the logP rises from 2.17 to 2.86.

Compared with `CCOP(=S)(OCC)SCSc1ccc(Cl)cc1`, `CCOP(=S)(OCC)SCn1c(=O)oc2cc(Cl)ccc21` is lower in logP: 5.33 for the first, 4.38 for the second.

`OCCCCCc1ccccn1` and `Oc1nc2ccccc2[nH]1` are within 0.2 log units of each other in logP: 1.28 for the first, 1.12 for the second.

Compared with `CC(=O)Oc1cccc(C)c1`, `CNC(=O)Oc1cccc(OC)c1` is lower in logP: 2.09 for the first, 1.3 for the second.

Compared with `CN(Cc1ccccc1)c1ccccc1`, `CN(C)C(CSS(=O)(=O)c1ccccc1)CSS(=O)(=O)c1ccccc1` is lower in logP: 4.22 for the first, 3.36 for the second.

First: C=CCN(CC=C)CC=C
Second: C=CCNC(=O)NCC=C
The logP of the first is higher: 2.59 for the first, 0.64 for the second.

Compared with `COc1ccccc1NC(=O)Nc1ccccc1OC`, `COc1ccccc1C(=O)c1ccncc1` is lower in logP: 2.98 for the first, 1.86 for the second.

Going from `COCCOC` to `COP(=O)(OC)OC`, the logP falls from -0.21 to -0.65.

Compared with `NCCCCC(=O)O`, `OCCCF` is higher in logP: -2.63 for the first, -0.28 for the second.

Going from `CCCCCCC1(CC)C(=O)NC(=O)NC1=O` to `CCCCCC1(CC)C(=O)NC(=O)NC1=O`, the logP falls from 2.46 to 2.24.

First: CCc1ccccc1-c1nc(N)nc(N)n1
Second: CN(C)C1=CC(=O)c2ccccc2C1=O
The logP of the first is lower: 1.65 for the first, 1.9 for the second.

Going from `CCOC(=O)C(=Cc1ccccc1)C(C)=O` to `NC(=S)NN=Cc1ccccc1`, the logP falls from 2.21 to 1.86.

`CNC(=O)Oc1cc(C(C)C)cc(C(C)C)c1` and `Cc1cccc(OC(=O)c2ccc(N)cc2O)c1` are within 0.2 log units of each other in logP: 3.79 for the first, 3.64 for the second.

First: NS(=O)(=O)c1cc2c(cc1Br)NCNS2(=O)=O
Second: CCOC(=O)c1cc(O)c(O)c(O)c1
The logP of the first is lower: 0.08 for the first, 1.3 for the second.

Going from `O=C(O)COc1cccc(Cl)c1` to `O=Cc1ccc(OCC(=O)O)cc1`, the logP falls from 2.03 to 0.79.

First: CCCCCc1cc(OC)c(CC(C)N)cc1OC (stereo not drawn)
Second: CCCCCCCCOC(=O)c1cc(O)c(O)c(O)c1
The logP of the first is higher: 4.43 for the first, 3.66 for the second.

First: COC(=O)c1ccccc1N=NN(C)C
Second: NC(=O)Nc1ccccc1
The logP of the first is higher: 2.51 for the first, 0.83 for the second.

Going from `CC(C)c1ccccc1N` to `O=c1[nH]c2ccccc2o1`, the logP falls from 2.12 to 1.16.

Going from `C=C1C(C)C2C(Cc3ccccc3)NC(=O)C23OC(=O)C=CC(O)CCCC(C)CC=CC3C1O` (stereo not drawn) to `OCCOCCOCCN1CCC(=C(c2ccccc2)c2ccccc2)CC1`, the logP rises from 3.37 to 3.78.

Going from `CN(C)C(N(C)C)=S(I)c1ccc(O)cc1` (stereo not drawn) to `C[Si](C)(C)c1ccc(O)cc1`, the logP rises from -0.88 to 3.84.

`C=CCc1ccccc1` and `Oc1cccc(-c2ccccc2)c1` are the same in logP: 3.23 for the first, 3.23 for the second.

Going from `O=c1[nH]cc(C(F)(F)F)c(=O)[nH]1` to `FC(F)(F)Br`, the logP rises from 0.04 to 1.86.

Going from `Brc1cccs1` to `CN(C)C(=O)c1cccnc1`, the logP falls from 2.75 to -0.48.

First: c1cncc(CCN2CCCC2)c1
Second: OC(c1ccc(Cl)cc1)(c1cncnc1)c1ccccc1Cl (stereo not drawn)
The logP of the first is lower: 1.34 for the first, 3.6 for the second.

`O=[N+]([O-])c1ccc(O)c([N+](=O)[O-])c1` and `O=C(O)CC[Se]Cc1ccc([N+](=O)[O-])cc1` are within 0.2 log units of each other in logP: 1.67 for the first, 1.63 for the second.

Compared with `C=CBr`, `C=C` is lower in logP: 1.57 for the first, 1.13 for the second.

First: COC(=O)/C=C\C(=O)OC
Second: CCOC(=O)C=Cc1ccc(O)c(O)c1
The logP of the first is lower: 0.22 for the first, 2.56 for the second.

Compared with `CCNc1nc(Cl)nc(N(CC)CC)n1`, `CCCCc1c(C)nc(NCC)nc1OS(=O)(=O)N(C)C` is lower in logP: 3.34 for the first, 2.7 for the second.

Compared with `CC(C)(N)Cc1ccc(Cl)cc1`, `Cc1cccc2c(C)cccc12` is higher in logP: 2.6 for the first, 4.38 for the second.

Compared with `Nc1ccc(S(=O)(=O)Nc2cnc3ccccc3n2)cc1`, `Cc1nnc2n1-c1sc(Br)cc1C(c1ccccc1Cl)=NC2` is higher in logP: 1.68 for the first, 2.79 for the second.

First: OCC(CO)(CBr)CBr
Second: OCCCl
The logP of the first is higher: 1.06 for the first, 0.03 for the second.

Compared with `CNc1nc(NC)nc(SC(F)F)n1`, `Brc1nc(Br)c(Br)[nH]1` is lower in logP: 2.31 for the first, 1.96 for the second.

Going from `COP(=O)(OC)OC(Br)C(Cl)(Cl)Br` (stereo not drawn) to `CCOC(=O)CCl`, the logP falls from 1.38 to 0.94.

`CC1CCCCC1` showed a logP of 3.61.
